Test results as given in PMC6214909, “An asparagine/glycine switch governs product specificity of human N-terminal methyltransferase NTMT2” (Communications Biology, 2018).
“Also recorded” adds a separate entry of the source. Read-outs that look alike come from different tables or passages of the source. Square brackets hold non-standard residues; d marks the D form. Ends that are not written are not given here. Peptide text beside a SMILES is read from it. NMeS = CN[C@@H](CO)C(=O)O; NMeA = CN[C@@H](C)C(=O)O

Assays:
NTMT2 [1] = target: T1, NTMT2 (Homo sapiens, UniProt Q5VVY1); assay: Isothermal titration calorimetry, wild-type NTMT2 and peptide; type: binding
T1 construct: DNA encoding human NTMT2 (residues 58–278) was amplified by PCR; SUMO (His8-SUMO of the pET28-MKH8SUMO vector, with TEV site) (N, cleaved yes); made in house; host or cells: Escherichia coli BL21 (DE3)
T1 sequence (Q5VVY1 58-278): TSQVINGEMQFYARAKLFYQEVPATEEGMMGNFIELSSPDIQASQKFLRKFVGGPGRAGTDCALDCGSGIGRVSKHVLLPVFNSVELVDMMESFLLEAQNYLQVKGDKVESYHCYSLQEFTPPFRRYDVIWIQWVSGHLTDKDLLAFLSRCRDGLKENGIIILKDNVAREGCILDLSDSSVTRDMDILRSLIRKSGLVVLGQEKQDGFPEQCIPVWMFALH
Protocol: ITC measurements were performed in 20 mM Tris–HCl pH 7.5, 150 mM NaCl and 0.5 mM TCEP at 25 °C using MicroCal VP-ITC instrument. The final concentrations of protein and peptide were 50–80 μM and 0.6–1.2 mM, respectively. The peptide was titrated into the protein solution with 26 injections of 10 μL each. Injections were spaced 180 s with a reference power of 15 μcal s^−1. The ITC data were processed using Origin software.

RCC1 (Homo sapiens) = settings: cited from earlier work
NTMT1 = assay: MALDI-MS methyltransferase activity assay, NTMT1; type: biochemical, human; settings: 2 μM NTMT1, 10 μM peptide, 200 μM SAM, 25 mM Tris–HCl pH 7.5, 50 mM KCl, 37 °C, overnight
Protocol: (§1) A mixture (36 μL) of 2 μM enzyme (NTMT1 or NTMT2), 25 mM Tris–HCl pH 7.5, 50 mM KCl and 200 μM SAM was incubated at 37 °C for 5 min. 4 μL of 100 μM peptide substrate (final concentration 10 μM) was then added to initiate the reaction. The reaction was incubated overnight and then stopped with quenching solution (20 mM NH4H2PO4, 0.4% (v/v) TFA in 1:1 acetonitrile/water). Reaction mixtures were analyzed with an Applied Biosystems Voyager matrix-assisted laser desorption/ionization time-of-flight mass spectrometer. Processing of all spectra results in Data Explorer included application of a noise filter (correlation factor of 1.0) and a baseline correction. Areas of the monoisotopic peaks for all relevant species were combined to obtain a total area for each sample. The fraction of each methylation state was calculated by summing the areas of all the monoisotopic peaks for that state ([M + H]^+, [M + Na]^+, [M + K]^+, [M – H + 2Na]^+, [M – H + 2 K]^+, and [M – H + Na + K]^+) and then dividing by the total area.

NTMT2-N89G mutant = assay: MALDI-MS methyltransferase activity assay, NTMT2-N89G mutant; type: biochemical, human; settings: NTMT2-N89G under the same conditions (2 μM enzyme, 10 μM peptide, 200 μM SAM, pH 7.5, 37 °C, overnight)
Protocol: as §1

NTMT2 [2] = target: T1, NTMT2; assay: MALDI-MS methyltransferase activity assay, NTMT2; type: biochemical; settings: 2 μM NTMT2, 10 μM peptide, 200 μM SAM, 25 mM Tris–HCl pH 7.5, 50 mM KCl, 37 °C, overnight
Protocol: as §1

[3] = target: T2, NTMT2 (residues 58–278) N89G mutant (human, UniProt Q5VVY1 58-278, N89G); assay: ITC; peptide (0.6–1.2 mM) titrated into protein (50–80 μM); 20 mM Tris–HCl pH 7.5, 150 mM NaCl, 0.5 mM TCEP, 25 °C; MicroCal VP-ITC; settings: both partners purified
T2 construct: N-terminal methyltransferase NTMT2 (METTL11B/NRMT2), human, residues 58-278; also called NTMT2-N89G; source: E. coli BL21 (DE3), purified with the same protocol as wild type; not shown: SUMO, N-terminal, cleaved
T2 sequence (Q5VVY1 58-278 N89G): as the sequence (Q5VVY1 58-278) above, with N32G counted along it

[4] = ITC, wild-type NTMT2, 20 mM Tris–HCl pH 7.5, 150 mM NaCl, 0.5 mM TCEP, 25 °C, ND = no detectable binding

NTMT1 (from UniProt Q9BV86), sequence (Q9BV86 whole entry): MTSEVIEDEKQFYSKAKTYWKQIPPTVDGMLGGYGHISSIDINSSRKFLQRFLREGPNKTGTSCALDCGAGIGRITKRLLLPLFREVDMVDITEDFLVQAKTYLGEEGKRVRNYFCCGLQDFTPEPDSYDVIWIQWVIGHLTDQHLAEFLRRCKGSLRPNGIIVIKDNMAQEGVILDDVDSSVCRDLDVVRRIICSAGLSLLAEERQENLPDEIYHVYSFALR

Di-methylated fraction (NTMT1) [%] | Mono-methylated fraction (NTMT1) [%] | Trimethylated fraction (NTMT1) [%] | Unmethylated fraction (NTMT1) [%] | Di-methylated fraction (NTMT2-N89G mutant) [%] | Mono-methylated fraction (NTMT2-N89G mutant) [%] | Trimethylated fraction (NTMT2-N89G mutant) [%] | Unmethylated fraction (NTMT2-N89G mutant) [%] | Di-methylated fraction (NTMT2 [2]) [%] | Mono-methylated fraction (NTMT2 [2]) [%] | Trimethylated fraction (NTMT2 [2]) [%] | Unmethylated fraction (NTMT2 [2]) [%] | Kd (NTMT2 [1]; read-out: Kd) [µM] | Kd [3] [µM] | Molecule | Kd (NTMT2 [1]; [4]) | Kd (RCC1 (Homo sapiens)) [µM]
 |  |  |  |  |  |  |  |  |  |  |  |  |  | CC[C@H](C)[C@H](NC(=O)[C@H](CCCNC(=N)N)NC(=O)[C@H](CCCCN)NC(=O)[C@@H]1CCCN1C(=O)[C@H](C)NC)C(=O)N[C@@H](C)C(=O)O [Ame1PKRIA] (H-[NMeA]PKRIA-OH) | no detectable binding; also recorded: does not bind | 
 |  |  |  |  |  |  |  |  |  |  |  |  |  | CC[C@H](C)[C@H](NC(=O)[C@H](CCCNC(=N)N)NC(=O)[C@H](CCCCN)NC(=O)[C@@H]1CCCN1C(=O)[C@H](CO)NC)C(=O)N[C@@H](C)C(=O)O [Sme1PKRIA] (H-[NMeS]PKRIA-OH) | barely demonstrated any binding affinity; also recorded: does not bind | 
 |  |  |  |  |  |  |  |  |  |  |  |  |  | NTMT1 (from UniProt Q9BV86) |  | 0.8
98.24 | 0.00 | 1.76 | 0.00 | 0.00 | 47.86 | 0.00 | 52.14 | 0.00 | 23.35 | 0.00 | 76.65 |  |  | RPKRIA [synthetic XPKRIA hexapeptide substrate, X = R] |  | 
 |  |  |  |  |  |  |  | 0.00 | 46.39 | 0.00 | 53.61 | 18 |  | SPKRIA [SPKRIA] |  | 
33.51 | 40.04 | 0.00 | 26.44 | 0.00 | 11.78 | 0.00 | 88.22 | 0.00 | 0.00 | 0.00 | 100.00 |  |  | TPKRIA [synthetic XPKRIA hexapeptide substrate, X = T] |  | 
45.70 | 54.30 | 0.00 | 0.00 | 0.00 | 4.18 | 0.00 | 95.82 | 0.00 | 0.00 | 0.00 | 100.00 |  |  | VPKRIA [synthetic XPKRIA hexapeptide substrate, X = V] |  | 
17.46 | 67.03 | 0.00 | 15.51 | 0.00 | 100.00 | 0.00 | 0.00 | 0.00 | 36.35 | 0.00 | 63.65 |  |  | WPKRIA [synthetic XPKRIA hexapeptide substrate, X = W] |  | 
100.00 | 0.00 | 0.00 | 0.00 | 0.00 | 87.50 | 0.00 | 12.50 | 0.00 | 23.72 | 0.00 | 76.28 |  |  | YPKRIA [synthetic XPKRIA hexapeptide substrate, X = Y] |  | 
 |  |  |  |  |  |  |  |  |  |  |  |  | 36 | [NMeS]PKRIA (N-terminal hexapeptide of regulator of chromatin condensation 1 (RCC1), without the initiator methionine, alpha-N-monomethylated; also called mono-methylated SPKRIA) [Sme1PKRIA peptide (methylated SPKRIA)] |  | 
 |  |  |  |  |  |  |  |  |  |  |  |  | 32 | [NMeA]PKRIA (XPKRIA peptide derived from the RCC1 N-terminal hexapeptide SPKRIA, with alanine at the first position, alpha-N-monomethylated; also called mono-methylated APKRIA) [Ame1PKRIA peptide] |  | 
